Data on one compound can be found in patent US11603380B2 (Centre national de la recherche scientifique, priority 2018, dated 2023).

For one data set, the system named is HSV-2 (G). Nature of the data set: microbe, parasite or virus in culture. The data set is classed as cell-based, herpes simplex virus 2. To be noted: read-out: EC50 HSV-2 (G).
The test system of data set [1] is herpes simplex virus 1 (HSV-1) (KOS). Nature of the data set: microbe, parasite or virus in culture. The format is cell-based. To be noted: read-out: EC50 HSV-1 (KOS).
A further data set has as its system Feline Herpes Virus. Nature of the data set: organism not typed. The format is cell-based. To be noted: read-out: EC50 Feline Herpes Virus.
In data set [2] the test system is varicella-zoster virus (VZV) TK+ (OKA). Nature of the data set: microbe, parasite or virus in culture. The data set is classed as cell-based. To be noted: read-out: EC50 VZV TK+ (OKA).
Data set [3] relates to human cytomegalovirus (HCMV) (AD-169). Nature of the data set: microbe, parasite or virus in culture. The data set is classed as cell-based. To be noted: read-out: EC50 HCMV (AD-169).
Another data set relates to HEL cells. To be noted: read-out: Cytotoxicity CC50; concentration reducing cell growth by 50%; HCMV/VZV table.
In data set [4] the test system is human cytomegalovirus (HCMV) (Davis). Nature of the data set: microbe, parasite or virus in culture. To be noted: read-out: EC50 HCMV (Davis). The format is cell-based.
Another data set concerns Vaccinia Virus. Nature of the data set: microbe, parasite or virus in culture. The format is cell-based. To be noted: read-out: EC50 Vaccinia Virus.
The next data set deals with HSV-1 (KOS ACV) TK−. Nature of the data set: microbe, parasite or virus in culture. The data set is classed as cell-based, herpes simplex virus 1. To be noted: read-out: EC50 HSV-1 (KOS ACV) TK−.

As usually defined, the EC50 is the midpoint of the concentration-response curve. For orientation: CC50 means the concentration at which the toxic effect on the cells reaches its halfway point.

On to `CCCCCCCCCCCCCCCCOCCCOP(=O)(CC=C(COC(C)=O)COc1cc(Cl)nc(N)n1)OCOC(=O)OC(C)C` (mixture of isomers) [Compound (8), [(E/Z)-2′-[(2-amino-6-chloro-pyrimidin-4-yl)oxymethyl]-4-[3-hexadecoxypropoxy(isopropoxycarbonyloxymethoxy)phosphoryl]but-2′-enyl]acetate], for which the EC50 in the data set on HSV-2 (G) is above 100 µM; in data set [1], above 100 µM; with Feline Herpes Virus, above 100 µM; in [2], 48.9 µM; in [3] it was above 20 µM; in data set [4], 13.1 µM. Moreover, the 50% effective concentration (EC50) in the data set on Vaccinia Virus and in the data set with HSV-1 (KOS ACV) TK− was above 100 µM throughout. Also, the “Cytotoxicity MCC” value in the data set with HEL cell cultures amounted to 100 µM. Besides, the CC50 in the data set on HEL cells was 5.01 µM.
